In PubChem BioAssay AID330 (DTP/NCI, 2004):
Inconclusive results and toxic doses are left out. How the source made its calls: active means survival T/C of 150% or more; inactive means T/C below 125% in these data.

System: P388 leukemia ip, CD2F1 mice, survival T/C
Experiment: NCI In Vivo Anticancer Drug Screen. Data for tumor model P388 Leukemia (intraperitoneal) in CD2F1 (CDF1) mice
Conditions: endpoint: median survival time, higher = longer survival
Outline: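 Mice carrying the transplanted tumor received test compound or vehicle. Survival was recorded in each group, and the value is the treated-group measurement divided by that of the vehicle-treated control group.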

[1] = dose: 60.0 mg/kg/injection, schedule: Q01DX005 (ip), vehicle: saline with Tween-80
[2] = dose: 120.0 mg/kg/injection, schedule: Q01DX005 (ip), vehicle: saline with Tween-80
[3] = dose: 240.0 mg/kg/injection, schedule: Q01DX005 (ip), vehicle: saline with Tween-80
[4] = dose: 100.0 mg/kg/injection, schedule: Q04DX003 (ip), vehicle: saline with Tween-80
[5] = dose: 200.0 mg/kg/injection, schedule: Q04DX003 (ip), vehicle: saline with Tween-80
[6] = dose: 400.0 mg/kg/injection, schedule: Q04DX003 (ip), vehicle: saline with Tween-80
[7] = dose: 100.0 mg/kg/injection, schedule: Q01DX001 (ip), vehicle: saline with Tween-80
[8] = dose: 200.0 mg/kg/injection, schedule: Q01DX001 (ip), vehicle: saline with Tween-80
[9] = dose: 400.0 mg/kg/injection, schedule: Q01DX001 (ip), vehicle: saline with Tween-80

Measured: T/C

COc1ccn(C2CCCCO2)c(=O)n1 (stereo not drawn)
inactive: dose: 50.0 mg/kg/injection, schedule: Q01DX005 (ip), vehicle: saline 108 % of control | dose: 100.0 mg/kg/injection, schedule: Q01DX005 (ip), vehicle: saline 108 % of control | dose: 200.0 mg/kg/injection, schedule: Q01DX005 (ip), vehicle: saline 108 % of control

COc1nc(NC2OCC(O)C(O)C2O)c(Cl)c(=O)n1C (stereo not drawn)
inactive: [1] 93 % of control | [2] 90 % of control | [3] 100 % of control

O=C(O)c1c[nH]c2cc(OCCOc3ccc(Br)cc3)ccc2c1=O
inactive: [4] 87 % of control | [5] 93 % of control | [6] 91 % of control

COc1ccc2cc3ccncc3cc2c1OC
inactive: dose: 12.5 mg/kg/injection, schedule: Q01DX009 (ip), vehicle: water 96 % of control | dose: 25.0 mg/kg/injection, schedule: Q01DX009 (ip), vehicle: water 99 % of control | dose: 50.0 mg/kg/injection, schedule: Q01DX009 (ip), vehicle: water 99 % of control | dose: 100.0 mg/kg/injection, schedule: Q01DX009 (ip), vehicle: water 97 % of control | dose: 200.0 mg/kg/injection, schedule: Q01DX009 (ip), vehicle: water 105 % of control

C=C(C(=O)O)C(=O)O
inactive: dose: 50.0 mg/kg/injection, schedule: Q01DX009 (ip), vehicle: saline 105 % of control | dose: 50.0 mg/kg/injection, schedule: Q04DX003 (ip), vehicle: saline 115 % of control | dose: 100.0 mg/kg/injection, schedule: Q01DX009 (ip), vehicle: saline 110 % of control | dose: 100.0 mg/kg/injection, schedule: Q04DX003 (ip), vehicle: saline 105 % of control | dose: 200.0 mg/kg/injection, schedule: Q04DX003 (ip), vehicle: saline 115 % of control

CCC(C)N(C)/N=N/c1nc[nH]c1C(N)=O (stereo not drawn)
inactive: dose: 100.0 mg/kg/injection, schedule: Q01DX009 (ip), vehicle: saline with Tween-80 115 % of control | [4] 95 % of control | dose: 200.0 mg/kg/injection, schedule: Q01DX009 (ip), vehicle: saline with Tween-80 105 % of control | [5] 113 % of control | [6] 113 % of control

O=C1CSC(c2c(O)ccc3ccccc23)N1CCN1C(=O)CSC1c1c(O)ccc2ccccc12 (stereo not drawn)
inactive: [7] 97 % of control | [8] 92 % of control | [9] 90 % of control

O=C(Nc1ccc(F)cc1)/C(Cl)=C1/Sc2ccccc2NC1=O
inactive: [7] 102 % of control | [8] 94 % of control | [9] 94 % of control

COc1ccccc1C(O)(c1ccccc1OC)C1(O)CCN(C)CC1
inactive: dose: 50.0 mg/kg/injection, schedule: Q01DX005 (ip), vehicle: Klucel (hydroxypropylcellulose) (HPC) 94 % of control | dose: 100.0 mg/kg/injection, schedule: Q01DX005 (ip), vehicle: Klucel (hydroxypropylcellulose) (HPC) 95 % of control

CCOc1ccc(C(CC)c2cc3c(cc2OC)OCO3)cc1 (stereo not drawn)
inactive: dose: 60.0 mg/kg/injection, schedule: Q01DX005 (ip), vehicle: saline + Tween-80 + alcohol 100 % of control | dose: 120.0 mg/kg/injection, schedule: Q01DX005 (ip), vehicle: saline + Tween-80 + alcohol 100 % of control | dose: 240.0 mg/kg/injection, schedule: Q01DX005 (ip), vehicle: saline + Tween-80 + alcohol 100 % of control

Cc1nn(C23CC4CC(CC(C4)C2)C3)c(C(Cl)Cl)c1Cl
inactive: [1] 100 % of control | [2] 94 % of control | [3] 94 % of control
